Assay results from patent US10307437B2, “Methods for treatment of vascular endothelial dysfunction using nicotinamide mononucleotide” (The Regents of the University of Colorado, a Body Corporate, priority 2014, dated 2019).
“Also recorded” adds a separate entry of the source.

Legend:
SIRT1 [1] = molecular target: T1, SIRT1 (Mus musculus, UniProt Q923E4); conditions: in part by reducing oxidative stress (Gano et al. 2014); cited from earlier work
T1 sequence (Q923E4 1-737): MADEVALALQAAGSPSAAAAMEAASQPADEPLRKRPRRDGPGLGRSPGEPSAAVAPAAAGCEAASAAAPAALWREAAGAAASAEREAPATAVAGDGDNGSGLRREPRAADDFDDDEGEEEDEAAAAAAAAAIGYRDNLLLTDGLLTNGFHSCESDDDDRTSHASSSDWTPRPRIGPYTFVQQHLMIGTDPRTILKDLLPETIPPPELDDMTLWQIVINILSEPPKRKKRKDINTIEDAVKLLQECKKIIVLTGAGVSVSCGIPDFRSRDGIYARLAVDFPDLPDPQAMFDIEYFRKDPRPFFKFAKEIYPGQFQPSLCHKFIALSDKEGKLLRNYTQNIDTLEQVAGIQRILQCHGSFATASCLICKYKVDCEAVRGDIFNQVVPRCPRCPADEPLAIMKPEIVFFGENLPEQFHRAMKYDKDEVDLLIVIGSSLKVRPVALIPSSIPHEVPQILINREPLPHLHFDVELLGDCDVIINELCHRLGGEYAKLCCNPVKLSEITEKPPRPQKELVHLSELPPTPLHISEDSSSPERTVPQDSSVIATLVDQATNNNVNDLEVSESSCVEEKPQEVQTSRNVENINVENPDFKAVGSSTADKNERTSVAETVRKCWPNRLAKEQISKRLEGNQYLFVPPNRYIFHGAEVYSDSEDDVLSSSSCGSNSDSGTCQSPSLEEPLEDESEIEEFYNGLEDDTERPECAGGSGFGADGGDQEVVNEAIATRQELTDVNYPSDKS

carotid arteries = assay: Ex vivo incubation of isolated carotid arteries with TEMPOL, EDD to acetylcholine; parameters: species or system mice; conditions: other groups (YC, YNMN, ONMN); TEMPOL 0.1 mM, 1 hour incubation
Description: EDD and endothelium-independent dilation were determined ex vivo in isolated carotid arteries as previously described (Rippe C. et al. 2010, Aging Cell. 9, 304-312; Sindler A. L. et al. 2011, Aging Cell. 10, 429-437). Mice were anesthetized using isoflurane and euthanized by exsanguination via cardiac puncture. The carotid arteries were carefully excised, cannulated onto glass micropipette tips, and secured with nylon (11-0) sutures in individual myograph chambers (DMT Inc., Ann Arbor, Mich., USA) containing buffered physiological saline solutions. The arteries were pressurized to 50 mmHg at 37° C. and were allowed to equilibrate for 45 minutes before experimentation. After submaximal preconstriction with phenylephrine (2 μM), increases in luminal diameter in response to acetylcholine (ACh: 1×10^−9-1×10^−4 M; Sigma-Aldrich Corp.) with and without co-administration of the NO synthase inhibitor, L-NAME, 0.1 mM, 30 minute incubation; (Sigma-Aldrich Corp.) or the superoxide dismutase mimetic 4-Hydroxy-2,2,6,6-tetramethylpiperidine-1-oxyl (TEMPOL, 0.1 mM, 1 hour incubation; Sigma-Aldrich Corp.) were determined. Endothelium-independent dilation was determined by vasodilation in response to the NO donor sodium nitroprusside (SNP: […]-1×10^−4 M; Sigma-Aldrich Corp.).
All dose-response data are presented as percent dilation, i.e. FIGS. 1A, 1C and 2A. […]

SIRT1 [2] = assay: Western blot of aortic SIRT1 expression; assay type: in vivo, mice; conditions: NMN 8 weeks
From the text: (§1) Young (4-8 months) C57Bl/6 male mice were purchased from Charles River and old (26-28 months) C57Bl/6 male mice were obtained from the National Institute on Aging rodent colony. Mice were fed normal rodent chow ad libitum for the duration of the study. After an acclimation period of 2 weeks, the young and old mice were divided into two subgroups: control animals (YC, OC) continued on normal drinking water and the other animals (YNMN, ONMN) received nicotinamide mononucleotide (NMN; Sigma-Aldrich Corp., St. Louis, Mo., USA) supplementation in the drinking water (240 mg/kg/day) for 8 weeks. All mice were housed in an animal care facility at the University of Colorado Boulder on a 12:12 hour light-dark cycle. […]
(§2) Aortas were used as a surrogate large elastic artery to provide sufficient tissue for analysis of protein expression by Western blot as described previously (Donato A. J. et al. 2013, J Physiol. 589, 4545-4554; Gano L. B. et al. 2014, Am J Physiol Heart Circ Physiol. 307, H1754-1763). […] Relative intensity was quantified using Image-J Software Version 1.0. […] The ratio of acetylated to total p65 was determined by running two identical Western blots. […] The ratio of acetylated to total p65 was determined for each animal and then normalized to the YC group mean.

collagen type I = assay: Immunohistochemistry of aortic collagen type I; assay type: in vivo; conditions: old mice, NMN 8 weeks
From the text: (§3) Young (4-8 months) C57Bl/6 male mice were purchased from Charles River and old (26-28 months) C57Bl/6 male mice were obtained from the National Institute on Aging rodent colony. Mice were fed normal rodent chow ad libitum for the duration of the study. After an acclimation period of 2 weeks, the young and old mice were divided into two subgroups: control animals (YC, OC) continued on normal drinking water and the other animals (YNMN, ONMN) received nicotinamide mononucleotide (NMN; Sigma-Aldrich Corp., St. Louis, Mo., USA) supplementation in the drinking water (240 mg/kg/day) for 8 weeks. All mice were housed in an animal care facility at the University of Colorado Boulder on a 12:12 hour light-dark cycle. All animal procedures conformed to the Guide to the Care and Use of Laboratory Animals (NIH publication No. 85-23, revised 1996) and were approved by the UCB Animal Care and Use Committee.
(§4) Immunohistochemistry was used to determine aortic expression of collagen type I and elastin as previously described (Fleenor B. S. et al. 2010 J Physiol. 588, 3971-3982). […] Digital photomicrographs were obtained using a Nikon Eclipse TS100 photomicroscope, and quantification was performed with Image-J Software Version 1.0. The adventitial and medial layers for each sample were quantified together for whole vessel expression. […]

elastin = assay: Immunohistochemistry of aortic elastin; assay type: in vivo; conditions: old mice, NMN 8 weeks
From the text: as §3, §4

[3] = parameters: species or system mice; conditions: mouse, in vivo
From the text: as §3
Data are presented as mean±SEM in text, figures and tables. All analyses were performed with SPSS. A one-way ANOVA (Analysis of Variance) was used to analyze morphological characteristics, maximum EDD, NO-mediated EDD, EPR spectroscopy, aPWV, elastic modulus, Western blots, and immunohistochemistry. Within-group differences in the maximal EDD dose response to acetylcholine in the absence vs. presence of TEMPOL was determined using two-factor (group×treatment) repeated-measures ANOVA. […]

superoxide = assay: Aortic superoxide production by EPR spectroscopy; assay type: in vivo; conditions: young mice, NMN 8 weeks
From the text: as §3
Measurement of superoxide production in the thoracic aorta was performed using electron paramagnetic resonance (EPR) spectroscopy, as previously described (LaRocca T. J. et al. 2013, Mech Ageing Dev. 134, 314-320). […] The signal amplitude was analyzed using an MS300 X-band EPR spectrometer (Magnettech GmbH, Berlin, Germany) with the following settings: centrefield, 3350 G; sweep, 80 G; microwave modulation, 3000 mG, and microwave attenuation, 7 dB. […]

SIRT1 [4] = molecular target: T1, SIRT1; assay: SIRT1 activation by ratio of acetylated to total NFκB (p65 subunit) in aorta; assay type: in vivo; parameters: Aortas were used as a surrogate large elastic artery to provide sufficient tissue for analysis of protein expression by Western blot; from tissue; host or cells: mouse aorta (C57Bl/6); conditions: old mice, NMN 8 weeks
From the text: as §1, §2

C57Bl/6 male mice [5] = assay: Ex vivo carotid artery vasodilatory responses after NMN supplementation in drinking water
nitrotyrosine = assay: Western blot of aortic nitrotyrosine abundance; assay type: in vivo, mice; conditions: NMN 8 weeks
From the text: as §1, §2

C57Bl/6 male mice [6] = assay: In vivo aortic pulse wave velocity; conditions: young mice, NMN 240 mg/kg/day, 8 weeks
From the text: as §1
Aortic pulse wave velocity (aPWV) was measured as described previously (Sindler A. L. et al. 2011, Aging Cell. 10, 429-437; Fleenor B. S. et al. 2012b, Exp Gerontol. 47, 588-594). […] Aortic blood flow velocity was measured with two Doppler probes placed at the transverse aortic arch and abdominal aorta, respectively. Pre-ejection time, the time between the R-wave of the ECG to foot of the Doppler signal, was determined for each site. aPWV was calculated by dividing the distance between the transverse and abdominal probes by the difference in the thoracic and abdominal pre-ejection times.

Q: With O=C(Nc1ccccc1-c1cn2c(CN3CCNCC3)csc2n1)c1cnc2ccccc2n1 [SRT1720] as the compound, how does the “EDD in old mice” value (SIRT1 [1]) read?
A: improves

Q: For CC1(C)CC(O)CC(C)(C)N1[O] [TEMPOL, 4-hydroxy-2,2,6,6-tetramethylpiperidin-1-oxyl], which “carotid artery EDD in presence of TEMPOL” value (carotid arteries) is on record?
A: no significant effect; also recorded: no significant improvement

Q: With NC(=O)c1ccc[n+]([C@@H]2O[C@H](COP(=O)([O-])O)[C@@H](O)[C@H]2O)c1 [NMN, nicotinamide mononucleotide] as the compound, how does the “aortic SIRT1 protein expression” value (SIRT1 [2]; old mice) read?
A: tended to increase

Q: And the “aortic SIRT1 protein expression” value (SIRT1 [2]; young mice)?
A: increased

Q: What about the “arterial collagen type I expression” value (collagen type I) of the same compound?
A: reversed; also recorded: reduced arterial collagen type I to levels of young mice

Q: And the arterial elastin expression (elastin)?
A: partially increased; also recorded: increased elastin to levels not significantly different from young mice

Q: What about the “body mass across the four groups” value [3] of the same compound?
A: no significant differences

Q: And the aortic superoxide production (superoxide)?
A: no significant effect

Q: What about the “vascular SIRT1 activity (ratio of acetylated to total p65 subunit of NFκB)” value (SIRT1 [4]) of the same compound?
A: restored

Q: And the “Endothelium-independent dilation to sodium nitroprusside” value (C57Bl/6 male mice [5]; young and old mice, NMN-treated vs controls)?
A: not significantly different; also recorded: did not influence

Q: What about the “EDD and NO-mediated dilation” value (C57Bl/6 male mice [5]; young mice, NMN 240 mg/kg/day in drinking water, 8 weeks) of the same compound?
A: had no effect

Q: What about the aortic nitrotyrosine abundance (nitrotyrosine; old mice) of the same compound?
A: decreased; also recorded: markedly reduced

Q: And the aortic nitrotyrosine abundance (nitrotyrosine; young mice)?
A: no significant effect

Q: What about the “aortic pulse wave velocity (aPWV)” value (C57Bl/6 male mice [6]) of the same compound?
A: no significant effect
